The values below are quoted from earlier work in patent US20250049951A1, “NUCLEIC ACID COMPOSITIONS AND USES THEREOF” (SURGE Therapeutics, Inc., priority 2021, published 2025).

SMILES strings stand for the structures. Where “and” joins values, the source holds several entries; their conditions need not be identical. Equal values may be shown once.

One series has as its target T1, TLR7 (Homo sapiens, UniProt Q9NYK1).
T1 construct: expressed in transfected cells; host or cells: HEK293
T1 sequence (Q9NYK1 27-1049): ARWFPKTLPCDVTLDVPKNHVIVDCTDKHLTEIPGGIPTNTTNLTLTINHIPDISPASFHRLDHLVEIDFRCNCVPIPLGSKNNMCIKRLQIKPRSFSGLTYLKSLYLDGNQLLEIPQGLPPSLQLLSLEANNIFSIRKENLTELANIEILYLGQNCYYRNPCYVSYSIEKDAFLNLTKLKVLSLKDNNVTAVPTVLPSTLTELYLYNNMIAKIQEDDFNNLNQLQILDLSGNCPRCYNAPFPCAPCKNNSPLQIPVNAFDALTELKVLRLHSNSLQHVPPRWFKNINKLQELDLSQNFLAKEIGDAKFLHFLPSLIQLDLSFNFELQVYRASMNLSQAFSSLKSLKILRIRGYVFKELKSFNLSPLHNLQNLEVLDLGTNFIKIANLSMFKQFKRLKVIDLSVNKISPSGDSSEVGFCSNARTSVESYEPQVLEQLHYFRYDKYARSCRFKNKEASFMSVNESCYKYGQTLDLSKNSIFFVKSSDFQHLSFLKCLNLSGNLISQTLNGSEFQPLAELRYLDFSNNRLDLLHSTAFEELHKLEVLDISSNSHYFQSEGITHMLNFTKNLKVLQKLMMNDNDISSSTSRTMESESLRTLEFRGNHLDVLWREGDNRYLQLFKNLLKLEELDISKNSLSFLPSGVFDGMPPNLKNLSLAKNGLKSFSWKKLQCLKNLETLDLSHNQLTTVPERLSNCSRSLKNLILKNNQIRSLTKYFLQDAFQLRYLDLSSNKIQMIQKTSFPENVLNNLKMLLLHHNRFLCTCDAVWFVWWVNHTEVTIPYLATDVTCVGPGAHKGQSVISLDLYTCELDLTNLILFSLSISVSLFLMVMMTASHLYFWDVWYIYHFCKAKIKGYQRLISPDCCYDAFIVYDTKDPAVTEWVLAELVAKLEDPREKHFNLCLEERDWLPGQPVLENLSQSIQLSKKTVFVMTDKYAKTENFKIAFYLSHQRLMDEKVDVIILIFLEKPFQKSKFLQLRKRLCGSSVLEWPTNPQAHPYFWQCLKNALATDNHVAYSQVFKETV

A further series concerns the target T2, TLR8 (Homo sapiens, UniProt Q9NR97).
T2 construct: expressed in transfected cells; host or cells: HEK293
T2 sequence (Q9NR97 27-1041): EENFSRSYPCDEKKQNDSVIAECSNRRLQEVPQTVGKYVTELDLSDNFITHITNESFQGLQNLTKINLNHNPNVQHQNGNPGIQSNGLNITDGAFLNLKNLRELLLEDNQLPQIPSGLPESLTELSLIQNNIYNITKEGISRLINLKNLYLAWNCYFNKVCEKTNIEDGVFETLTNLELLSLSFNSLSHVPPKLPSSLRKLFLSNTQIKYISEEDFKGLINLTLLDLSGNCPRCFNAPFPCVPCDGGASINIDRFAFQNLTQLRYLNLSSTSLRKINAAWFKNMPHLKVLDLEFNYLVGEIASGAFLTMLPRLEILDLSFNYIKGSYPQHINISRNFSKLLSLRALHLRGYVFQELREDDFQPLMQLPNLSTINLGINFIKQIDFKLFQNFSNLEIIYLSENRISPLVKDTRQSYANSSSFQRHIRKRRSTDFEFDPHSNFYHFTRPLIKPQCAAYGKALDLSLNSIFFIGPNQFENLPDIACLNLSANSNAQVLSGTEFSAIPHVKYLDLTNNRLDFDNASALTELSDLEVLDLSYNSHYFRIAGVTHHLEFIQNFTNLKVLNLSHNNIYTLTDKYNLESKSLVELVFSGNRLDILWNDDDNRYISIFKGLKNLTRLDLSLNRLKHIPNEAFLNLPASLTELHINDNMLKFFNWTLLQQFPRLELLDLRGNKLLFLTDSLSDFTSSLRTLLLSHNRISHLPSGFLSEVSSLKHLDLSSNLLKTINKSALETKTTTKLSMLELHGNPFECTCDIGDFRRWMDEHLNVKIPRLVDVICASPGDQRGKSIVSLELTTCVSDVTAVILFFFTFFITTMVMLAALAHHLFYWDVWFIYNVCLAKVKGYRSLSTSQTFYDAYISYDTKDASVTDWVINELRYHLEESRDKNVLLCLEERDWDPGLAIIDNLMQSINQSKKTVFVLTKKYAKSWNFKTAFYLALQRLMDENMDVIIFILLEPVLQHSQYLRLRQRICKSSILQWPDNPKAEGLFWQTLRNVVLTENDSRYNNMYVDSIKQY
The following applies: TLR8-transfected HEK293 cells.

Regarding `CCCc1nc2c(N)nc3ccccc3c2s1` [CL075], at TLR7 (times more than the 0.4 μM needed in TLR8 cells), the “amount required to activate NF-κB in TLR7- relative to TLR8-transfected HEK293 cells” value is ~10 times. In addition, on TLR8, the “concentration inducing NF-κB activation” value was 0.4 μM and 0.1 μg/ml.
On to `CCOC(=O)C1=Cc2ccc(-c3cccc(C#N)c3)cc2N=C(N)C1` [TL8-506], for which, at TLR8 (more potent than CL075), the “potency in inducing NF-κB activation relative to CL075” value is ~25 ×. Moreover, the “potency in inducing NF-κB activation relative to R848” value on TLR8 (more potent than R848) is given as ~50 ×.
Turning to `CCOCC1Nc2c(N)nc3ccccc3c2N1` (stereo not shown) [CL097], the water solubility was ≥ 20 mg/mL. In addition, on TLR7 (TLR7-transfected HEK293 cells), the “concentration inducing NF-κB activation” value is 0.4 μM and 0.1 μg/ml. For the same molecule, the “concentration inducing NF-κB activation” value at TLR8 is 4 μM and 1 μg/ml.
